Data: ChEMBL document CHEMBL3045319, “Synthesis, antitumor activity, and structureactivity relationship of some 4H-pyrano[3,2-h]quinoline and 7H-pyrimido[4,5:6,5]pyrano[3,2-h]quinoline derivatives” (Med Chem Res, 2013)
≈ marks a conversion by molar mass, not a printed value.

Legend:
[1] = Cytotoxicity against Homo sapiens (human) HCT cells assessed as cell viability at 6.25 ug/ml after 48 hr by MTT assay relative to control; type: functional; details: read-out: Activity
[2] = test system: HepG2; assay: Cytotoxicity against Homo sapiens (human) HepG2 cells assessed as cell viability at 50 ug/ml after 48 hr by MTT assay relative to control; type: functional; details: HepG2, 48 h, read-out: Activity
[3] = test system: HepG2; assay: Cytotoxicity against Homo sapiens (human) HepG2 cells after 48 hr by MTT assay; type: functional, cell-based; details: Homo sapiens, HepG2, 48 h; read-out: IC50
[4] = Cytotoxicity against Homo sapiens (human) HCT cells assessed as cell viability at 50 ug/ml after 48 hr by MTT assay relative to control; type: functional; details: read-out: Activity
[5] = Cytotoxicity against Homo sapiens (human) HCT cells assessed as cell viability at 25 ug/ml after 48 hr by MTT assay relative to control; type: functional; details: read-out: Activity
[6] = Cytotoxicity against Homo sapiens (human) HCT cells assessed as cell viability at 3.125 ug/ml after 48 hr by MTT assay relative to control; type: functional; details: read-out: Activity
[7] = test system: HepG2; assay: Cytotoxicity against Homo sapiens (human) HepG2 cells assessed as cell viability at 3.125 ug/ml after 48 hr by MTT assay relative to control; type: functional; details: HepG2, 48 h, read-out: Activity
[8] = Cytotoxicity against Homo sapiens (human) HCT cells assessed as cell viability at 1.56 ug/ml after 48 hr by MTT assay relative to control; type: functional; details: read-out: Activity
[9] = test system: MCF7; assay: Cytotoxicity against Homo sapiens (human) MCF7 cells assessed as cell viability at 3.125 ug/ml after 48 hr by MTT assay relative to control; type: functional; details: MCF7, 48 h, read-out: Activity
[10] = test system: MCF7; assay: Cytotoxicity against Homo sapiens (human) MCF7 cells assessed as cell viability at 1.56 ug/ml after 48 hr by MTT assay relative to control; type: functional; details: MCF7, 48 h, read-out: Activity
[11] = test system: MCF7; assay: Cytotoxicity against Homo sapiens (human) MCF7 cells assessed as cell viability at 12.5 ug/ml after 48 hr by MTT assay relative to control; type: functional; details: MCF7, 48 h, read-out: Activity
[12] = test system: MCF7; assay: Cytotoxicity against Homo sapiens (human) MCF7 cells assessed as cell viability at 6.25 ug/ml after 48 hr by MTT assay relative to control; type: functional; details: MCF7, 48 h, read-out: Activity
[13] = test system: MCF7; assay: Cytotoxicity against Homo sapiens (human) MCF7 cells assessed as cell viability at 25 ug/ml after 48 hr by MTT assay relative to control; type: functional; details: MCF7, 48 h, read-out: Activity
[14] = test system: MCF7; assay: Cytotoxicity against Homo sapiens (human) MCF7 cells assessed as cell viability at 50 ug/ml after 48 hr by MTT assay relative to control; type: functional; details: MCF7, 48 h, read-out: Activity
[15] = test system: HepG2; assay: Cytotoxicity against Homo sapiens (human) HepG2 cells assessed as cell viability at 25 ug/ml after 48 hr by MTT assay relative to control; type: functional; details: HepG2, 48 h, read-out: Activity
[16] = Cytotoxicity against Homo sapiens (human) HCT cells after 48 hr by MTT assay; type: functional, cell-based
[17] = test system: HepG2; assay: Cytotoxicity against Homo sapiens (human) HepG2 cells assessed as cell viability at 1.56 ug/ml after 48 hr by MTT assay relative to control; type: functional; details: HepG2, 48 h, read-out: Activity
[18] = test system: MCF7; assay: Cytotoxicity against Homo sapiens (human) MCF7 cells after 48 hr by MTT assay; type: functional, cell-based; details: MCF7, 48 h
[19] = test system: HepG2; assay: Cytotoxicity against Homo sapiens (human) HepG2 cells assessed as cell viability at 12.5 ug/ml after 48 hr by MTT assay relative to control; type: functional; details: HepG2, 48 h, read-out: Activity
[20] = Cytotoxicity against Homo sapiens (human) HCT cells assessed as cell viability at 12.5 ug/ml after 48 hr by MTT assay relative to control; type: functional; details: read-out: Activity
[21] = test system: HepG2; assay: Cytotoxicity against Homo sapiens (human) HepG2 cells assessed as cell viability at 6.25 ug/ml after 48 hr by MTT assay relative to control; type: functional; details: HepG2, 48 h, read-out: Activity

Row | Compound | viability at 6.25 µg/mL [1] [%] | viability at 50 µg/mL [2] [%] | IC50 [3] [µg/mL] | viability at 50 µg/mL [4] [%] | viability at 25 µg/mL [5] [%] | viability at 3.125 µg/mL [6] [%] | viability at 3.125 µg/mL [7] [%] | viability at 1.56 µg/mL [8] [%] | viability at 3.125 µg/mL [9] [%] | viability at 1.56 µg/mL [10] [%] | viability at 12.5 µg/mL [11] [%] | viability at 6.25 µg/mL [12] [%] | viability at 25 µg/mL [13] [%] | viability at 50 µg/mL [14] [%] | viability at 25 µg/mL [15] [%] | IC50 [16] [µg/mL] | viability at 1.56 µg/mL [17] [%] | viability at 12.5 µg/mL [19] [%] | viability at 12.5 µg/mL [20] [%] | viability at 6.25 µg/mL [21] [%] | other results
1 | Cc1ccc2ccc3c(c2n1)OC(/N=C/N)=C(C#N)C3c1ccc(Cl)cc1 (centres undefined) | 70.7 | 41.2 | 32.9 (≈ 87.8 µM) | 35.9 | 44.2 | 82.2 | 76.7 | 91.6 | 96.5 | 98.4 | 81.5 | 89.3 | 74.2 | 63.6 | 53.8 | 21.7 (≈ 57.9 µM) | 80.5 | 57.7 | 65.2 | 68 | IC50 [18]: > 50 µg/mL
2 | N#CC1=C(/N=C/N)Oc2c(ccc3cccnc23)C1c1ccc(Cl)cc1 (centres undefined) | 52.4 | 35.8 | 23.6 (≈ 65.4 µM) | 18.7 | 21.8 | 80.2 | 87.4 | 94.9 | 79.7 | 91.3 | 43.6 | 67.4 | 37.5 | 23.1 | 43.4 | 6.8 (≈ 18.8 µM) | 96.6 | 63.9 | 26.3 | 76.7 | IC50 [18]: 10.5 µg/mL (≈ 29.1 µM)
3 | CN(C)/C=N/C1=C(C#N)C(c2ccc(Cl)cc2)c2ccc3cccnc3c2O1 (centres undefined) | 88.1 | 48.1 | 47.9 (≈ 123 µM) | 49.5 | 71.3 | 98.5 | 98.3 | 100 | 92 | 98.7 | 75.6 | 83.5 | 58 | 37.7 | 77.8 | 49.4 (≈ 127 µM) | 100 | 85.6 | 77.7 | 93 | IC50 [18]: 29.3 µg/mL (≈ 75.3 µM)
4 | CC(=O)NC1=C(C#N)C(c2ccc(Br)cc2)c2ccc3ccc(C)nc3c2O1 (centres undefined) | 86.8 | 32.6 | 26.5 (≈ 61 µM) | 22.5 | 44.5 | 95.1 | 90.7 | 99.8 | 79.9 | 94.8 | 51.2 | 65.8 | 32.1 | 23.4 | 51.2 | 21.3 (≈ 49 µM) | 98.8 | 68.6 | 71.8 | 81.6 | IC50 [18]: 13.5 µg/mL (≈ 31.1 µM)
5 | CCO/C=N/C1=C(C#N)C(c2ccc(Br)cc2)c2ccc3ccc(C)nc3c2O1 (centres undefined) | 46.5 | 34.6 | 37.1 (≈ 82.8 µM) | 19.8 | 23.3 | 62.9 | 94.6 | 81.9 | 95.4 | 98.1 | 79.2 | 87.6 | 67.4 | 56.6 | 62.9 | 5.8 (≈ 12.9 µM) | 100 | 76.4 | 34 | 83.3 | IC50 [18]: > 50 µg/mL
6 | Nc1ncnc2c1C(c1ccc(Cl)cc1)c1ccc3cccnc3c1O2 (centres undefined) | 74.6 | 64.3 | > 50 | 26.4 | 42 | 78.6 | 90.4 | 83.1 | 94.5 | 100 | 75.8 | 81.2 | 68.8 | 45.4 | 67.6 | 19.2 (≈ 53.2 µM) | 94.4 | 73.3 | 62.1 | 83.3 | IC50 [18]: 44.6 µg/mL (≈ 124 µM)
7 | CN/C=N/C1=C(C#N)C(c2ccc(Cl)cc2)c2ccc3cccnc3c2O1 (centres undefined) | 29.4 | 9.28 | 1.9 (≈ 5.07 µM) | 11.1 | 13.6 | 41.4 | 45.7 | 58.2 | 65 | 76.8 | 29.2 | 50.1 | 21.4 | 16.8 | 17.9 | 2.3 (≈ 6.14 µM) | 52.8 | 30.4 | 22.2 | 39 | IC50 [18]: 6.3 µg/mL (≈ 16.8 µM)
8 | N#CC1=C(N)Oc2c(ccc3cccnc23)C1c1ccc(Cl)cc1 (centres undefined) | 76.8 | 52.8 | > 50 | 27.4 | 48.2 | 92.6 | 68.5 | 100 | 91.6 | 100 | 72.9 | 82.5 | 49.8 | 26.8 | 57.2 | 24 (≈ 71.9 µM) | 79.6 | 63.5 | 67.4 | 68.2 | IC50 [18]: 24.9 µg/mL (≈ 74.6 µM)
9 | CC(=O)NC1=C(C#N)C(c2ccc(Cl)cc2)c2ccc3ccc(C)nc3c2O1 (centres undefined) | 77.5 | 23.8 | 17.8 (≈ 45.7 µM) | 22 | 42.5 | 85.2 | 89.7 | 96.4 | 86.5 | 96.3 | 68.7 | 76.8 | 54 | 46.2 | 35.9 | 14.6 (≈ 37.5 µM) | 100 | 60.2 | 53.3 | 78.6 | IC50 [18]: 38.6 µg/mL (≈ 99 µM)
10 | CCO/C=N/C1=C(C#N)C(c2ccc(Cl)cc2)c2ccc3cccnc3c2O1 (centres undefined) | 73.3 | 39.4 | 31.1 (≈ 79.8 µM) | 23.9 | 51.4 | 81.7 | 91 | 93.4 | 93 | 98.3 | 74.2 | 81.4 | 67.1 | 43 | 57.1 | 25.7 (≈ 65.9 µM) | 97.6 | 72.3 | 67.1 | 86.6 | IC50 [18]: 45.4 µg/mL (≈ 116 µM)
11 | CC[C@]1(O)C[C@@H]2CN(CCc3c([nH]c4ccccc34)[C@@](C(=O)OC)(c3cc4c(cc3OC)N(C)[C@H]3[C@@](O)(C(=O)OC)[C@H](OC(C)=O)[C@]5(CC)C=CCN6CC[C@]43[C@@H]65)C2)C1 [VINBLASTINE] | 38.1 | 14.4 |  | 16.3 | 21.7 | 47.5 | 55 | 53.4 | 60.4 | 76.2 | 29.6 | 48.8 | 15.2 | 7.82 | 16.1 | 2.6 (≈ 3.21 µM) | 72.1 | 24.2 | 28.2 | 45.1 | 
